Patent publication US8063098B2, “GlyT1 receptor antagonists” (Hoffmann-La Roche Inc., priority 2008, dated 2011)

Biological target: T1, mGlyT-1b (Mus musculus, UniProt P28571)
T1 construct: host or cells: Flp-in-CHO
T1 sequence (P28571 1-651 isoform P28571-2): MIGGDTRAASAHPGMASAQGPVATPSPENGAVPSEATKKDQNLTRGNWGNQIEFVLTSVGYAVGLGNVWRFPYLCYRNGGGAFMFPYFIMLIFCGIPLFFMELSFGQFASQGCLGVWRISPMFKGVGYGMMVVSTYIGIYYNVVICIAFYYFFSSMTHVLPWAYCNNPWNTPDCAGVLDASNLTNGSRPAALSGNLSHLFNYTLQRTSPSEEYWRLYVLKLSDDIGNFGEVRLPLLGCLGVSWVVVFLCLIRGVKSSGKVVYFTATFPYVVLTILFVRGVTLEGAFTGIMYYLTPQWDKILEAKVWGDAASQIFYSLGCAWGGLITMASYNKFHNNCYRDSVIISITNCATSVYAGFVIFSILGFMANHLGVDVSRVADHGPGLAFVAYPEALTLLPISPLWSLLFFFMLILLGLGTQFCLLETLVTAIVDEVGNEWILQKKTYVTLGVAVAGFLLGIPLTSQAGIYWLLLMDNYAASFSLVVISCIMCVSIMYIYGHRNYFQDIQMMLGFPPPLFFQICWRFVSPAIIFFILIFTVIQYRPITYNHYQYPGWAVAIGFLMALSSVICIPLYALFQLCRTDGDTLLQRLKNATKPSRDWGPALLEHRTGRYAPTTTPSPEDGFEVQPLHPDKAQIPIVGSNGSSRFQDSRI
Test: Glycine uptake inhibition assay (mGlyT-1b), [3H]-glycine uptake in Flp-in-CHO cells
Type: cell-based
Conditions: Flp-in-CHO cells stably transfected with mGlyT1b cDNA, 20 min at 22° C. preincubation
Protocol: Nutrient mixture F-12 (Gibco Life-technologies), fetal bovine serum (FBS) 5%, (Gibco life technologies), Penicillin/Streptomycin 1% (Gibco life technologies), Hygromycin 0.6 mg/ml (Gibco life technologies), Glutamine 1 mM Gibco life technologies) • Uptake buffer (UB): 150 mM NaCl, 10 mM Hepes-Tris, pH 7.4, […], 2.5 mM KCl, 2.5 mM MgSO4, 10 mM (+) D-glucose. • Flp-in™-CHO (Invitrogen Cat n° R758-07) cells stably transfected with mGlyT1b cDNA. Glycine Uptake Inhibition Assay (mGlyT-1b)
On day 1 mammalian cells, (Flp-in™-CHO), transfected with mGlyT-1b cDNA, were plated at the density of 40,000 cells/well in complete F-12 medium, without hygromycin in 96-well culture plates. On day 2, the medium was aspirated and the cells were washed twice with uptake buffer (UB). The cells were then incubated for 20 min at 22° C. with either (i) no potential competitor, (ii) 10 mM non-radioactive glycine, (iii) a concentration of a potential inhibitor. A range of concentrations of the potential inhibitor was used to generate data for calculating the concentration of inhibitor resulting in 50% of the effect (e.g. IC50, the concentration of the competitor inhibiting glycine uptake of 50%). A solution was then immediately added containing [^3H]-glycine 60 nM (11-16 Ci/mmol) and 25 μM non-radioactive glycine. The plates were incubated with gentle shaking and the reaction was stopped by aspiration of the mixture and washing (three times) with ice-cold UB. The cells were lysed with scintillation liquid, shaken 3 hours and the radioactivity in the cells was counted using a scintillation counter.

IC50	SMILES
0.0521 µM	COc1cc(C(F)(F)F)cc(SC)c1C(=O)NC(c1ccccc1)C1(N2C3CCC2COC3)CCC1 (racemic) [Example 71, (rac)-2-Methoxy-6-methylsulfanyl-N-{[1-(3-oxa-8-aza-bicyclo[3.2.1]oct-8-yl)-cyclobutyl]-phenyl-methyl}-4-trifluoromethyl-benzamide]
0.047 µM	CSc1cc(C(F)(F)F)cc(C(F)(F)F)c1C(=O)NC(c1ccccc1)C1(N2CCCC2)CCC1 (single isomer, unassigned; (+)) [Example 30, (+)-2-Methylsulfanyl-N-[phenyl-(1-pyrrolidin-1-yl-cyclobutyl)-methyl]-4,6-bis-trifluoromethyl-benzamide]
0.0225 µM	COc1cc(C(F)(F)F)cc(SC)c1C(=O)NC(c1ccccc1)C1(N2CCCC2)CCC1 (single isomer, unassigned; (+)) [Example 32, (+)-2-Methoxy-6-methylsulfanyl-N-[phenyl-(1-pyrrolidin-1-yl-cyclobutyl)-methyl]-4-trifluoromethyl-benzamide]
0.00847 µM	COc1cc(C(F)(F)F)cc(SC)c1C(=O)NC(c1ccccc1)C1(N2CCCC2)CCC1 (single isomer, unassigned; (+)) [Example 33, (+)-2-Methoxy-6-methylsufanyl-N-[phenyl-(1-pyrrolidin-1-yl-cyclobutyl)-methyl]-4-trifluoromethyl-benzamide]
0.0098 µM	CSc1cc(C(F)(F)F)ccc1C(=O)NC(c1ccccc1)C1(N2CCCC2)CCC1 (single isomer, unassigned; (+)) [Example 35, (+)-2-Methylsulfanyl-N-[phenyl-(1-pyrrolidin-1-yl-cyclobutyl)-methyl]-4-trifluoromethyl-benzamide]
0.0509 µM	CSc1cc(C(F)(F)F)cc(C(F)(F)F)c1C(=O)NC(c1ccccc1)C1(N2CCCC2)CC1 (single isomer, unassigned; (-)) [Example 29, (−)-2-Methylsulfanyl-N-[phenyl-(1-pyrrolidin-1-yl-cyclopropyl)-methyl]-4,6-bis-trifluoromethyl-benzamide]
0.0181 µM	CSc1cc(C(F)(F)F)cc(C(F)(F)F)c1C(=O)NC(c1ccccc1)C1(N2CCCC2)CCC1 (single isomer, unassigned; (-)) [Example 31, (−)-2-Methylsulfanyl-N-[phenyl-(1-pyrrolidin-1-yl-cyclobutyl)-methyl]-4,6-bis-trifluoromethyl-benzamide]
0.0683 µM	CSc1cc(C(F)(F)F)cc(C(F)(F)F)c1C(=O)NC(c1ccccc1)C1(N2CCCC2)CC1 (stereo not shown) [Example 6, 2-Methylsulfanyl-N-[phenyl-(1-pyrrolidin-1-yl-cyclopropyl)-methyl]-4,6-bis-trifluoromethyl-benzamide]
0.0295 µM	CSc1cc(C(F)(F)F)cc(C(F)(F)F)c1C(=O)NC(c1ccccc1)C1(N2CCCC2)CCC1 (stereo not shown) [Example 9, 2-Methylsulfanyl-N-[phenyl-(1-pyrrolidin-1-yl-cyclobutyl)-methyl]-4,6-bis-trifluoromethyl-benzamide]
0.0253 µM	COc1cc(C(F)(F)F)cc(SC)c1C(=O)NC(c1ccccc1)C1(N2CCCC2)CC1 (stereo not shown) [Example 10, 2-Methoxy-6-methylsulfanyl-N-[phenyl-(1-pyrrolidin-1-yl-cyclopropyl)-methyl]-4-trifluoromethyl-benzamide]
0.0122 µM	COc1cc(F)cc(SC)c1C(=O)NC(c1ccccc1)C1(N2CCCC2)CCC1 (stereo not shown) [Example 11, 4-Fluoro-2-Methoxy-6-methylsulfanyl-N-[phenyl-(1-pyrrolidin-1-yl-cyclobutyl)-methyl]-benzamide]
0.0112 µM	COc1cc(C(F)(F)F)cc(SC)c1C(=O)NC(c1ccccc1)C1(N2CCCC2)CCC1 (stereo not shown) [Example 12, 2-Methoxy-6-methylsulfanyl-N-[phenyl-(1-pyrrolidin-1-yl-cyclobutyl)-methyl]-4-trifluoromethyl-benzamide]
0.034 µM	CSc1cccc(C(F)(F)F)c1C(=O)NC(c1ccccc1)C1(N2CCCC2)CCC1 (stereo not shown) [Example 13, 2-Methylsulfanyl-N-[phenyl-(1-pyrrolidin-1-yl-cyclobutyl)-methyl]-6-trifluoromethyl-benzamide]
0.0455 µM	COc1cc(C(F)(F)F)cc(C(F)(F)F)c1C(=O)NC(c1ccccc1)C1(N2CCCC2)CCC1 (stereo not shown) [Example 14, 2-Methoxy-N-[phenyl-(1-pyrrolidin-1-yl-cyclobutyl)-methyl]-4,6-bis-trifluoromethyl-benzamide]
0.0312 µM	O=C(NC(c1ccccc1)C1(N2CCCC2)CCC1)c1ccc(C(F)(F)F)cc1C(F)(F)F (stereo not shown) [Example 15, N-[Phenyl-(1-pyrrolidin-1-yl-cyclobutyl)-methyl]-2,4-bis-trifluoromethyl-benzamide]
0.0134 µM	CSc1cc(C(F)(F)F)ccc1C(=O)NC(c1ccccc1)C1(N2CCCC2)CCC1 (stereo not shown) [Example 16, 2-Methylsulfanyl-N-[phenyl-(1-pyrrolidin-1-yl-cyclobutyl)-methyl]-4-trifluoromethyl-benzamide]
0.0368 µM	COc1cc(C(F)(F)F)ccc1C(=O)NC(c1ccccc1)C1(N2CCCC2)CCC1 (stereo not shown) [Example 17, 2-Methoxy-N-[phenyl-(1-pyrrolidin-1-yl-cyclobutyl)-methyl]-4-trifluoromethyl-benzamide]
0.02 µM	CSc1cc(C(F)(F)F)ccc1C(=O)NC(c1ccc(F)cc1)C1(N2CCCC2)CCC1 (stereo not shown) [Example 24, N-[(4-Fluoro-phenyl)-(1-pyrrolidin-1-yl-cyclobutyl)-methyl]-2-methylsulfanyl-4-trifluoromethyl-benzamide]
0.0597 µM	CSc1cc(C(F)(F)F)ccc1C(=O)NC(c1ccc(Cl)cc1)C1(N2CCCC2)CCC1 (stereo not shown) [Example 36, N-[(4-Chloro-phenyl)-(1-pyrrolidin-1-yl-cyclobutyl)-methyl]-methylsulfanyl-4-trifluoromethyl-benzamide]
0.0398 µM	CCc1cc(C(F)(F)F)cc(C(F)(F)F)c1C(=O)NC(c1ccccc1)C1(N2CCCC2)CCC1 (stereo not shown) [Example 37]
0.0175 µM	COc1cc(C(F)(F)F)cc(SC)c1C(=O)NC(c1ccc(F)cc1)C1(N2CCCC2)CCC1 (stereo not shown) [Example 38, N-[(4-Fluoro-phenyl)-(1-pyrrolidin-1-yl-cyclobutyl)-methyl]-2-methoxy-6-methylsulfanyl-4-trifluoromethyl-benzamide]
0.0211 µM	COc1cc(C(F)(F)F)cc(SC)c1C(=O)NC(c1ccc(Cl)cc1)C1(N2CCCC2)CCC1 (stereo not shown) [Example 39, N-[(4-Chloro-phenyl)-(1-pyrrolidin-1-yl-cyclobutyl)-methyl]-2-methoxy-6-methylsulfanyl-4-trifluoromethyl-benzamide]
0.0322 µM	CSc1cc(C(F)(F)F)ccc1C(=O)NC(c1cc(F)cc(F)c1)C1(N2CCCC2)CCC1 (stereo not shown) [Example 40, N-[(3,5-Difluoro-phenyl)-(1-pyrrolidin-1-yl-cyclobutyl)-methyl]-2-methylsulfanyl-4-trifluoromethyl-benzamide]
0.0148 µM	Cc1cc(C(F)(F)F)ccc1C(=O)NC(c1ccccc1)C1(N2CCCC2)CCC1 (stereo not shown) [Example 41, 2-Methyl-N-[phenyl-(1-pyrrolidin-1-yl-cyclobutyl)-methyl]-4-trifluoromethyl-benzamide]
0.0951 µM	O=C(NC(c1ccccc1)C1(N2CCCC2)CCC1)c1ccccc1C(F)(F)F (stereo not shown) [Example 44, N-[Phenyl-(1-pyrrolidin-1-yl-cyclobutyl)-methyl]-2-trifluoromethyl-benzamide]
0.0275 µM	CSc1cc(C(F)(F)F)ccc1C(=O)NC(c1ccccc1)C1(N2CCCCC2)CCC1 (stereo not shown) [Example 48, 2-Methylsulfanyl-N-[phenyl-(1-piperidin-1-yl-cyclobutyl)-methyl]-4-trifluoromethyl-benzamide]

SMILES	IC50
O=C(NC(c1ccccc1)C1(N2CCCC2)CCC1)c1ccc(Cl)cc1Cl (stereo not shown) [Example 43, 2,4-Dichloro-N-[phenyl-(1-pyrrolidin-1-yl-cyclobutyl)-methyl]-benzamide]	0.0669 µM
COc1cc(Cl)ccc1C(=O)NC(c1ccccc1)C1(N2CCCC2)CCC1 (stereo not shown) [Example 47, 4-Chloro-2-methoxy-N-[phenyl-(1-pyrrolidin-1-yl-cyclobutyl)-methyl]-benzamide]	0.0724 µM
